In patent US20080145313A1, “Compositions and Methods for the Treatment and Prevention of Neoplastic Disorders” (Genesis Research & Development Corporation Limited, priority 2006, published 2008):

Key:
A549 cells = assay: Growth inhibition of siRNA-transfected A549 cells, SYBR Green I DNA content; type: cell-based, human; details: A549 cells, 10 nM siRNA, DNA content 96 hours after transfection, transporter gene targets
In short: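 Growth read-out: cellular DNA quantified with SYBR Green I (485/535 nm) 96 h after transfection, cells frozen, thawed and lysed in PBS/1% Triton X-100, pH 7. Cells (A549, 5×10^3 cells/cm^2) received 10 nM siRNA by RNAiMAX; non-specific siRNA served as control; triplicate wells averaged.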

[1] = test system: target transcript mRNA in A549 cells; assay: Level of mRNA of target transcript in A549 cells by quantitative RT-PCR (Tables 12 and 13); type: cell-based, human; details: 24 h post-transfection; for mRNA knockdown of transporter gene target transcript, 0.1 nM: 0.1 nM siRNA; for mRNA knockdown of transporter gene target transcript, 1 nM: 1 nM siRNA
In short: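 Target mRNA was measured by SYBR Green quantitative RT-PCR using random-primed cDNA, normalised to HPRT and Lamin. Samples came from A549 cells 24 h post-transfection with 0.1, 1.0 or 10 nM siRNA.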

Substance	Growth Inhibition in A549 cells by 10 nM siRNA (A549 cells)	mRNA knockdown of transporter gene target transcript, 0.1 nM [1]	mRNA knockdown of transporter gene target transcript, 1 nM [1]	mRNA knockdown of transporter gene target transcript, 10 nM ([1]; 10 nM siRNA)
SEQ ID NO: 4938: siRNA targeting ATP2B1 (PMCA1) (chain 1 AAATCTTGTCTATCCTCTCTTGCTC; chain 2 AAAUCUUGUCUAUCCUCUCUUGCUC; chemistry not given here; one strand in two spellings)	− (no growth inhibition)	+ (50-70% mRNA knockdown)	++ (70-90% mRNA knockdown)	
SEQ ID NO: 4928: siRNA targeting SLC25A10 (DIC) (chain 1 AATAAAGCTGGCGACAAAGTGAGTG; chain 2 AAUAAAGCUGGCGACAAAGUGAGUG; chemistry not given here; one strand in two spellings)	++ (inhibits by at least 75%)	++ (70-90% mRNA knockdown)	++ (70-90% mRNA knockdown)	
SEQ ID NO: 4978: siRNA targeting ABCB1 (MDR1) (chain 1 TTGGTACTAAGCTTTCTGTCTTGGG; chain 2 UUGGUACUAAGCUUUCUGUCUUGGG; chemistry not given here; one strand in two spellings)	− (no growth inhibition)	− (<50% mRNA knockdown)	− (<50% mRNA knockdown)	
SEQ ID NO: 4909: siRNA targeting SLC3A2 (4F2hc) (chain 1 AAGAGCATCAGCTGGTAGAGTCGGA; chain 2 AAGAGCAUCAGCUGGUAGAGUCGGA; Antisense strand given in DNA and RNA notation, chemistry not given here; one strand in two spellings)	− (no growth inhibition)	+ (50-70% mRNA knockdown)	++ (70-90% mRNA knockdown)	
SEQ ID NO: 4890: siRNA targeting SLC1A5 (ASCT2) (chain 1 TTTACGAAGTCCAAGGACTGCTGGC; chain 2 UUUACGAAGUCCAAGGACUGCUGGC; Antisense strand given in DNA and RNA notation, chemistry not given here; one strand in two spellings)	− (no growth inhibition)	++ (70-90% mRNA knockdown)	++ (70-90% mRNA knockdown)	
SEQ ID NO: 4923: siRNA targeting SLC16A1 (MCT1) (chain 1 AAATAATTAGGACGACGCCACATGC; chain 2 AAAUAAUUAGGACGACGCCACAUGC; chemistry not given here; one strand in two spellings)	− (no growth inhibition)	+ (50-70% mRNA knockdown)	++ (70-90% mRNA knockdown)	+++ (>90% mRNA knockdown)
SEQ ID NO: 4891: siRNA targeting SLC1A5 (ASCT2) (chain 1 TCTACATTGAGGACGGTACAGGACC; chain 2 UCUACAUUGAGGACGGUACAGGACC; Antisense strand given in DNA and RNA notation, chemistry not given here; one strand in two spellings)	− (no growth inhibition)	++ (70-90% mRNA knockdown)	++ (70-90% mRNA knockdown)	
